Experimental data: ChEMBL document CHEMBL1201862, “PubChem BioAssay data set” (2004)
Activity calls are given as the source filed them.

Assays:
[1] = target: G-protein coupled receptor 35 (Homo sapiens, UniProt Q9HC97); assay: inhibition of zaprinast-stimulated GPR35 beta-arrestin translocation – imaging, U2OS, beta-arrestin-GFP, zaprinast agonist, primary screen (AID 2058); assay type: functional;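 further: antagonist potency meaning inhibition of agonist-induced arrestin redistribution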
[2] = non-specific 3'UTR reporter inhibition in Clone20-Shn3RL – cell-based, Renilla luciferase, cherry-picked, counter-screen for Shn3 inhibitor project, dose response (AID 624133); assay type: functional
[3] = alpha-synuclein stem-loop luciferase translation blockers – H4 neuroglioma cells, luminescence, confirmation (AID 1988); assay type: functional, cell-based
[4] = Luminescence Cell-Based Dose Response HTS to Identify Inhibitors of 5'UTR Stem-Loop Driven Prion Protein mRNA Translation in H4 Neuroglioblastoma Cells. [Related pubchem assays: 1827 (Project Summary), 1813 (Primary HTS)]; assay type: functional
[5] = target: Beta-galactosidase (Escherichia coli, UniProt Q8VNN2); assay: PubChem AID 485352; assay type: functional
Chain of Beta-galactosidase (Q8VNN2 whole entry): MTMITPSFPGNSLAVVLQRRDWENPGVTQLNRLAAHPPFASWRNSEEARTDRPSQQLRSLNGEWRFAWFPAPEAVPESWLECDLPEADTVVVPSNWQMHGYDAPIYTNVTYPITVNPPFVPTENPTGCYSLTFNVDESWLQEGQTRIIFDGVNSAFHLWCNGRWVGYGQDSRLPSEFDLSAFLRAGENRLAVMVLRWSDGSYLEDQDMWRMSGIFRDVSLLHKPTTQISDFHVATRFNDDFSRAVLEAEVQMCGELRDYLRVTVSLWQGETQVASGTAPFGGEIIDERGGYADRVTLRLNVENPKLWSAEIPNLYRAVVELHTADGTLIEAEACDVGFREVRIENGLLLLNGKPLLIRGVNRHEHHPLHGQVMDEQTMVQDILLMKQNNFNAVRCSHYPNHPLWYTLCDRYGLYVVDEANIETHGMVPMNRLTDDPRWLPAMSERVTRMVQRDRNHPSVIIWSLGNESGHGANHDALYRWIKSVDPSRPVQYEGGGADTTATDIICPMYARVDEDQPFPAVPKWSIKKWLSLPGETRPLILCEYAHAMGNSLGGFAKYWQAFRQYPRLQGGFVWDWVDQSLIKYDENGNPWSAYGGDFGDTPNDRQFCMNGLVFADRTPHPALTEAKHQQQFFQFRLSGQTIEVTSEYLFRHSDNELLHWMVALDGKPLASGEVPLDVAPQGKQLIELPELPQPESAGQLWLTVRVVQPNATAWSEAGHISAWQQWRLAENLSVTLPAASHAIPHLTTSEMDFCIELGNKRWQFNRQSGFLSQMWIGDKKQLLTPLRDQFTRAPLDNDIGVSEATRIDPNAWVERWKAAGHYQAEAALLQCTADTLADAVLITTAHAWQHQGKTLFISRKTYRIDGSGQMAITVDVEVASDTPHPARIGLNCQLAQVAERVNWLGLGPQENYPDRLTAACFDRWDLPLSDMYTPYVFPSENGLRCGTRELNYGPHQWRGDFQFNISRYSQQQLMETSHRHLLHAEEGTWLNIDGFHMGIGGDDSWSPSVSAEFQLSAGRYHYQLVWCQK

[6] = target: Melanocortin receptor 4 (Homo sapiens, UniProt P32245); assay: inhibitors of MC4R cAMP signaling – cell-based, TR-FRET, biased antagonists, dose response (AID 602298); assay type: functional;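 further: antagonist potency against agonist-stimulated cAMP production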
Chain of Melanocortin receptor 4 (P32245 whole entry): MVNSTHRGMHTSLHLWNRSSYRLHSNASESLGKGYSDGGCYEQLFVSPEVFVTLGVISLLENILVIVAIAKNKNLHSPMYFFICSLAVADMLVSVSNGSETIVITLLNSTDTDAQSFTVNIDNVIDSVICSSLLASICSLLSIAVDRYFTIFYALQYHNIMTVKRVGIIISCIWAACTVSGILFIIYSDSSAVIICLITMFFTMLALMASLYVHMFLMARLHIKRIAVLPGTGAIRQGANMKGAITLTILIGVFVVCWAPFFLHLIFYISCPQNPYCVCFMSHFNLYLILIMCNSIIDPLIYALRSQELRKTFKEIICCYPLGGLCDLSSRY

[7] = loss of viability in HepG2 cells – cell-based, CellTiter-Glo, cherry-picked, cytotoxicity control for Shn3 inhibitor project, dose response (AID 624134); assay type: functional
[8] = target: Large T antigen (Simian virus 40, UniProt P03070); assay type: functional, Betapolyomavirus macacae;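 further: Confirmatory-stage PubChem screen for compounds that inhibit SV40 T antigen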
Chain of Large T antigen (P03070 whole entry): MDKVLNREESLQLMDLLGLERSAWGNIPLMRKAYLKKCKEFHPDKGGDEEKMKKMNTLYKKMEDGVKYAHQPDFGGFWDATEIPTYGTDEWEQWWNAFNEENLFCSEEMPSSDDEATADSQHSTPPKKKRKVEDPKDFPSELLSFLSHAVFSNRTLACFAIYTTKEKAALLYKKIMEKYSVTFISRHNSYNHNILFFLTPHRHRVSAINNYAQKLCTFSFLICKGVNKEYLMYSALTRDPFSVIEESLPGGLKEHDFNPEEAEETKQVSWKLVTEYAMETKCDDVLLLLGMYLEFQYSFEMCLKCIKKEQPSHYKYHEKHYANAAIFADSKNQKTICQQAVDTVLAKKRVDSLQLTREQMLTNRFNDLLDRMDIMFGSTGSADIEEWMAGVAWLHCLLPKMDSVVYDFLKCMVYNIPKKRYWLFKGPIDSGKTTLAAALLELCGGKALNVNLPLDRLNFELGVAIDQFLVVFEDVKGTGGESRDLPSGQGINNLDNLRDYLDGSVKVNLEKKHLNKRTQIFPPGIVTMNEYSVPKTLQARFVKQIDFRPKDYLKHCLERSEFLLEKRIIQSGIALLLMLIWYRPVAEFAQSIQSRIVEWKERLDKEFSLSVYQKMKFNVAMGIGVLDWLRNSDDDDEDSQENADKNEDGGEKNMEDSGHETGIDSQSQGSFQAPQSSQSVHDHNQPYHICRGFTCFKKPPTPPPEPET

[9] = target: Fatty acid synthase (Homo sapiens, UniProt P49327); assay: inhibition of human FAS-TE enzyme activity – biochemical, kinetic fluorescence intensity, dose response (AID 624326); assay type: functional;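 further: rate of fluorescence rise from hydrolysis of a fluorogenic O-methyl fluorescein ester substrate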
Chain of Fatty acid synthase (P49327 whole entry): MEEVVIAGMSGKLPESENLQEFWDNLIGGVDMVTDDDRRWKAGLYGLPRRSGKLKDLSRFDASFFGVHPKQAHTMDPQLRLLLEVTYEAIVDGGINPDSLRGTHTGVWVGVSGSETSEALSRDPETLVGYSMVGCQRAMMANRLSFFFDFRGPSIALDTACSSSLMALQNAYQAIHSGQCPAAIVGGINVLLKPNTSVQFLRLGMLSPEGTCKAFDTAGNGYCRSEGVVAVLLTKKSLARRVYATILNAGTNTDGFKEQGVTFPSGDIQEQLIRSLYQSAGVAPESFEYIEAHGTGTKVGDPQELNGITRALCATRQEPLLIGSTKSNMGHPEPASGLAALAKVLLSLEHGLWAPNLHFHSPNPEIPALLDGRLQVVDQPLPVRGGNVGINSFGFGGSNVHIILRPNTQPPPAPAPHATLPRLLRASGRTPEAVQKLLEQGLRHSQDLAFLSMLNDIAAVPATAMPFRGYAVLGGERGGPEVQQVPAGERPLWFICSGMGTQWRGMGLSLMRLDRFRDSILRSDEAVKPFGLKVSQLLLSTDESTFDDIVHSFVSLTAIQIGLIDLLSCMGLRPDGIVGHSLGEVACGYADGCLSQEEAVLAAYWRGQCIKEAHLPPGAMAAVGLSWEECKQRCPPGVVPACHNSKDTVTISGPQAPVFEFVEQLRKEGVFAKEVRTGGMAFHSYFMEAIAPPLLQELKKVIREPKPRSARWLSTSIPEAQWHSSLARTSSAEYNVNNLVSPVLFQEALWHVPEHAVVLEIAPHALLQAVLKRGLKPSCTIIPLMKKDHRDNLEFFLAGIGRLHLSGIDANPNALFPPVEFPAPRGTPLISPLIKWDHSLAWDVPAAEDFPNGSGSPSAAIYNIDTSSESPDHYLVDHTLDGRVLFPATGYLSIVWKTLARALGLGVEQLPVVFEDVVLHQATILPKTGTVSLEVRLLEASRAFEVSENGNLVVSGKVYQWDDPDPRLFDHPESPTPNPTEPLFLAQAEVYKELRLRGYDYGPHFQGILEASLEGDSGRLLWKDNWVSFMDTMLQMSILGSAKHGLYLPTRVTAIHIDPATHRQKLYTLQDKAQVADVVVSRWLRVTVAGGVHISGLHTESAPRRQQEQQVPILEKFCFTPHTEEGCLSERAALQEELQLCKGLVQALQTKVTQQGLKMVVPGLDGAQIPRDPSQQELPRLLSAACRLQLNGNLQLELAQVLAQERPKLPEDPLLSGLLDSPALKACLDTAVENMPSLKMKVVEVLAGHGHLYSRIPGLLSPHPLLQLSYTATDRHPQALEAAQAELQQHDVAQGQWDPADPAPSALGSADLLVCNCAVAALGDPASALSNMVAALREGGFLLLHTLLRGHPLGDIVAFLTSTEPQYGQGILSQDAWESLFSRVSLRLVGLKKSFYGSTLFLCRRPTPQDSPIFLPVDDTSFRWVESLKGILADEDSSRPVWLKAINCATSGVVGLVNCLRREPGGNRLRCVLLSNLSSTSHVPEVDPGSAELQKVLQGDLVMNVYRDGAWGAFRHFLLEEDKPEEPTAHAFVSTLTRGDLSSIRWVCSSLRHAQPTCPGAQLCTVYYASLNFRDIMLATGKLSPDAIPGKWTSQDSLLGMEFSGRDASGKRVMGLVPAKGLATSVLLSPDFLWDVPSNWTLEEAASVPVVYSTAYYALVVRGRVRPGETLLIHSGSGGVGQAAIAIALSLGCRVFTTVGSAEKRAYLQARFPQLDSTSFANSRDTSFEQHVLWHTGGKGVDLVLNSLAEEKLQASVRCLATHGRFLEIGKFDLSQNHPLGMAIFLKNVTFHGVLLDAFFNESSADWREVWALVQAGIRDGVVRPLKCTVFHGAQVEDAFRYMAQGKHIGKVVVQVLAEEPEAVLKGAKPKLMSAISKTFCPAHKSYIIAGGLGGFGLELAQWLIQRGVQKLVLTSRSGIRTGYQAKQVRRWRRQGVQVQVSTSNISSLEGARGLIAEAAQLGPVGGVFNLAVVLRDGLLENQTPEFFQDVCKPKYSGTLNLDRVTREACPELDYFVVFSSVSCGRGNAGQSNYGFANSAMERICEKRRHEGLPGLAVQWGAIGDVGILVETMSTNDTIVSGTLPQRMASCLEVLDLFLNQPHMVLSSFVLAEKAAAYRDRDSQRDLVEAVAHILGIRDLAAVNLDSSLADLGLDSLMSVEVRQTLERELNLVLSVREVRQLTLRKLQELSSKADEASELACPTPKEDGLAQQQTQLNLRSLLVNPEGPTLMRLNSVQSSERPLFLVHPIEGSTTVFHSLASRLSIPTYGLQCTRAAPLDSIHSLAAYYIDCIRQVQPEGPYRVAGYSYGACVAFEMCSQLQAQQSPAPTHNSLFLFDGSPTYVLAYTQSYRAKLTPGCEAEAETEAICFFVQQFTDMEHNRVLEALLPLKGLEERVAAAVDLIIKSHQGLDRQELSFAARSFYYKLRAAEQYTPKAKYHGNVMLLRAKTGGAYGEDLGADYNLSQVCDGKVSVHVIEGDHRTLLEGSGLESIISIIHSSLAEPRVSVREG

[10] = tested on: Streptococcus; assay: Luminescence Microorganism-Based Dose Response Follow up to Identify Compounds Cytotoxic to Streptococcus. [Related pubchem assays: 1677 (Project Summary), 1915, 1914, 1902 (Retest at Dose), 1900 (Counter Screen), 1662 (Primary HTS)]; assay type: functional, organism-based
[11] = target: T1, Type-1 angiotensin II receptor (Homo sapiens, UniProt P30556); assay: antagonism of angiotensin II type 1 receptor – cell-based, uHTS hits, selectivity assay for APJ receptor antagonist project, dose response (AID 463214); assay type: functional;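 further: antagonist potency against angiotensin II stimulated AT1 response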
T1 sequence (P30556 whole entry): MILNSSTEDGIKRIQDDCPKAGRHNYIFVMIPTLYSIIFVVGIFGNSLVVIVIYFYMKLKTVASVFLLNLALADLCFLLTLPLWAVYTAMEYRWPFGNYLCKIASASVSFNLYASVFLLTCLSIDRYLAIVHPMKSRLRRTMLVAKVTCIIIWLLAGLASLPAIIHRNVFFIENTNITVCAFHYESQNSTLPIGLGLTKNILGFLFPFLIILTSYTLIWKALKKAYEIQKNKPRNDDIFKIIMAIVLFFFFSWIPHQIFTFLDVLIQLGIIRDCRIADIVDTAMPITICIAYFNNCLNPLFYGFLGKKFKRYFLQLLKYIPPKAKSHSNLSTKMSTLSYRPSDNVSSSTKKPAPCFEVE

[12] = reduction of Shn3 3'UTR-driven luciferase in osteoblasts – cell-based, Clone20 osteoblasts, firefly luciferase, cherry-picked, dose response (AID 624132); assay type: functional;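 further: firefly luciferase luminescence from reporter carrying the Shn3 3'UTR in osteoblasts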
[13] = target: T2, Apoptotic protease-activating factor 1 (Homo sapiens, UniProt O14727); assay type: functional
T2 sequence (O14727 whole entry): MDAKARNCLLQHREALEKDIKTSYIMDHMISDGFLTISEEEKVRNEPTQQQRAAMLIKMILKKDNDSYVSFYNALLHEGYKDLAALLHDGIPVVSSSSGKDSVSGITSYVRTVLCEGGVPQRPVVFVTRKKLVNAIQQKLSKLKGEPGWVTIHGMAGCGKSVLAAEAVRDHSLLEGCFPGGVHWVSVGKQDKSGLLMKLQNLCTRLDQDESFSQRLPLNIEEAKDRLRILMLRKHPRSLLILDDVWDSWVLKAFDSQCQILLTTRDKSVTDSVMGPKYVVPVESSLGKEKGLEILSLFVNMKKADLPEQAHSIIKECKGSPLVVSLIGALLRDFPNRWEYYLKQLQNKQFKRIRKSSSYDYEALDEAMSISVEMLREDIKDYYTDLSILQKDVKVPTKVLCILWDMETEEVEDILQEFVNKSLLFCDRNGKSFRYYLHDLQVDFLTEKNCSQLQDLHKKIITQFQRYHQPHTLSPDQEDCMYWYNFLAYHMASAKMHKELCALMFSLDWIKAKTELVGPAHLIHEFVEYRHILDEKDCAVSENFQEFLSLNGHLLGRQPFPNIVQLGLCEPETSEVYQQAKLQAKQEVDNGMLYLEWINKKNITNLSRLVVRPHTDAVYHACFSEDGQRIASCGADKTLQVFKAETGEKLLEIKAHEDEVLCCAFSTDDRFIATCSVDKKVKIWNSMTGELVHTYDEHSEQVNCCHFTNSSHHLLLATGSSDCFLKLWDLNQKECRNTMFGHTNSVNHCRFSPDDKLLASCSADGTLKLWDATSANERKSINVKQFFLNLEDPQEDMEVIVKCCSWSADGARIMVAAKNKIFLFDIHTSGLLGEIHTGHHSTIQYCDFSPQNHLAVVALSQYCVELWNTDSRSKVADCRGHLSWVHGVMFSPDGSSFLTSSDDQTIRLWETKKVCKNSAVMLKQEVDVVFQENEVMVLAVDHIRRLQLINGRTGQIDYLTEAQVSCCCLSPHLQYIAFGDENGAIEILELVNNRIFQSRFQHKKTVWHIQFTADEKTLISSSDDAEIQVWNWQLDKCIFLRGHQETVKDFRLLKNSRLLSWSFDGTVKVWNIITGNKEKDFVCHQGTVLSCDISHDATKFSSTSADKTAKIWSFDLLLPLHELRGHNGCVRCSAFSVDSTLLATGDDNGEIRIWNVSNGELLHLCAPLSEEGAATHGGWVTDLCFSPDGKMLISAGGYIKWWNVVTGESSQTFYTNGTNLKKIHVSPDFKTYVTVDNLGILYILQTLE

[14] = target: T3, Zinc finger protein mex-5 (Caenorhabditis elegans, UniProt Q9XUB2); assay: potency of MEX-5 RNA-binding blockers – biochemical, C. elegans, fluorescence polarization, dose response (AID 1960)
T3 sequence (Q9XUB2 whole entry): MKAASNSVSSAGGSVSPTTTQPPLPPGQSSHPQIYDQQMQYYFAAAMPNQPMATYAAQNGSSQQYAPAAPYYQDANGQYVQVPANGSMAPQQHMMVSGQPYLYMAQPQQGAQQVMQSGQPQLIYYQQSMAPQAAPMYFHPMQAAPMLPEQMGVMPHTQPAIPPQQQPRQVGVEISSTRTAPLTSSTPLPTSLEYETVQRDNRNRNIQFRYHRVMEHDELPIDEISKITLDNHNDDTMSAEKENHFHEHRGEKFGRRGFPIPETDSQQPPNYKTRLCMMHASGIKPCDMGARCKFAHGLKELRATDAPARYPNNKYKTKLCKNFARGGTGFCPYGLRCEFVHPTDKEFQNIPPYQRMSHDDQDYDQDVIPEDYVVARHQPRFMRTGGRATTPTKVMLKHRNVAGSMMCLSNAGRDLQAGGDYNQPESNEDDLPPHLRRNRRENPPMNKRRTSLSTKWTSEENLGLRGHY

Chain of G-protein coupled receptor 35 (Q9HC97 whole entry): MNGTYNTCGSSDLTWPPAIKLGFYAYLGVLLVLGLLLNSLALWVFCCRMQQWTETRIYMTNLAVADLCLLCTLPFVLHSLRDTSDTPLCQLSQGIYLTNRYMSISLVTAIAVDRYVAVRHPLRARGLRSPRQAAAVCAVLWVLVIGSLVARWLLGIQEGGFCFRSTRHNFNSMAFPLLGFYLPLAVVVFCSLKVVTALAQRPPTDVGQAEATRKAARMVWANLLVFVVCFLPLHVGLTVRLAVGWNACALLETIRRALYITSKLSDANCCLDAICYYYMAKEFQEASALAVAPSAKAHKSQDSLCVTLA

| Compound | IC50 [1] | AC50 [2] | EC50 [3] | EC50 [4] | EC50 [5] | IC50 [6] | AC50 [7] | IC50 [8] | IC50 [9] | EC50 [10] | IC50 [11] | AC50 [12] | IC50 [13] | EC50 [14] |
| --- | --- | --- | --- | --- | --- | --- | --- | --- | --- | --- | --- | --- | --- | --- |
| CCC1CCCCN1S(=O)(=O)c1ccc(NC(=O)c2nc(S(C)(=O)=O)ncc2Cl)cc1 (centres undefined) | 3.23 µM (active) | 2.46 µM (active) | 9.69 µM (active) | 11.8 µM (active) | > 40 µM (inactive) | 1.17 µM (active) | 17 µM (active) | 44.8 µM (active) | 4.03 µM (active) | 16.5 µM (active) | 5.9 µM (active) | 0.341 µM (active) | – | – |
| CCCC[n+]1ccn(C2=C([N-]S(=O)(=O)c3ccc(Cl)cc3)C(=O)c3ccccc3C2=O)c1 | – | – | – | – | – | – | – | – | – | – | – | – | 19.3 µM (active) | 85.9 µM (inconclusive) |
